Format in all cases: cell-based
One experiment relates to IL-6. In words: IL-6 inhibition in LPS-stimulated THP-1 cells (HTRF). Particulars: Homo sapiens; THP-1 cells, LPS 500 ng/mL, 22 hours, IL6 HTRF. The procedure, abridged:
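THP-1 cells kept 24 h in 1% FBS medium, treated 2 h at 37 °C, then stimulated with 500 ng/mL LPS for another 22 h. IL-6 measured by HTRF as the 665/620 nm ratio; EC50 from a four-parameter fit normalized to DMSO controls.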

Experiment [1] has as its system primary human fibroblasts derived from IPF patients (LL29 cells). In words: Inhibition of the fibrotic process: αSMA staining in TGF-β1 treated LL29 fibroblasts. The settings on record: Fibroblast, 96 h, LL29 cells, TGF-β1 20 ng/mL, 4 days, % αSMA positive cells. The method in brief: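 IPF-patient-derived LL29 lung fibroblasts in F12 with 1% FBS, stimulated with TGF-β1 alongside compound; TGF-β1 plus DMSO wells served as controls. After 4 days, nuclei stained with 1 μM SYTOX green for 30 min at room temperature, alongside αSMA staining.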

In experiment [2] the test system is primary human mesenchymal stem cells (hMSCs). In words: Induction of chondrogenesis in hMSCs (nodule count, Rhodamine B/Nile Red). Particulars: 6 days, relative to TGF-β3 (10 ng/mL) positive control, read-out: Max. Activity as % TGF-β3 activity. An excerpt:
Representative compounds were screened using primary human mesenchymal stem cells (hMSCs) to determine their ability to induce chondrogenesis (process by which cartilage is developed).
Primary human mesenchymal stem cells (hMSCs) were purchased from Lonza (Walkersville, Md.) and expanded in Mesenchymal Stem Cell Growth Media (Lonza). Cells between passage 3 and 6 were used for the experiments.
To image chondrogenic nodules, the cells were fixed using 4% formaldehyde (Electron Microscopy Sciences), and stained with 2 μg/mL Rhodamine B (Sigma-Aldrich) and 20 μM Nile Red (Sigma-Aldrich) [Johnson K., et.al, A Stem Cell-Based Approach to Cartilage Repair, Science, (2012). […] Number of nodules in each well was normalized to the average of 3 DMSO treated wells on the same plate using Excel (Microsoft Inc.). The normalized averages (fold change over DMSO) of 3 replicate wells for each compound concentration were calculated. Due to solubility limitations of some of the compounds, curve fitting was incomplete leading to inaccurate EC50 determinations.
Using TGF-β3 as a positive control, the concentration of representative compounds required to induce 50% levels of chondrogenesis is reported. In addition, the maximum activity of each compound and the respective dose that each compound reached maximum chondrogenesis activity is reported.

A further experiment has as its system SW480 colon cancer cells. Put plainly: Cell viability assay (CellTiter-Blue) in SW480 colon cancer cells. Particulars: Homo sapiens, 96 h; SW480 cell viability, four days, CellTiter-Blue. The procedure, abridged:
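Fluorescence from resazurin reduced to resorufin by metabolically active cells was the read-out, taken after ~3 h with CellTiter-Blue.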
(Alamar Blue is a resazurin reagent that responds to reducing activity.)

The subject of the next experiment is Wnt activity. Put plainly: Wnt activity screening assay, Sp5-Luc reporter gene in SW480 cells. Particulars: Homo sapiens; Sp5-Luc reporter, SW480 cells, overnight incubation. The procedure, abridged:
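SW480 cells stably transduced with lentiviral Sp5 promoter (eight TCF/LEF sites)-firefly luciferase, plated at 4,000 cells/well in 1% FBS medium and incubated overnight at 37° C. Luminescence read after BrightGlo addition, normalized to DMSO-only cells; EC50 from four-parameter variable-slope nonlinear regression.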
Background: In a reporter assay the amount or activity of a reporter protein is the signal.

The values that follow come from patent publication US10383861B2, “3-(1H-pyrrolo[2,3-C]pyridin-2-yl)-1H-pyrazolo[3,4-C]pyridines and therapeutic uses thereof” (Samumed, LLC, priority 2015, dated 2019).

Broadly, the EC50 is the concentration at which the effect is half-maximal.

For the molecule `CC(C)C(=O)Nc1cncc(-c2cc3c(-c4cc5c(-c6cccc(F)c6)cncc5[nH]4)n[nH]c3cn2)c1` [Compound 9, N-(5-(3-(4-(3-Fluorophenyl)-1H-pyrrolo[2,3-c]pyridin-2-yl)-1H-pyrazolo[3,4-c]pyridin-5-yl)pyridin-3-yl)isobutyramide], the EC50 in the experiment on IL-6 came to 8.26 µM; in experiment [1], 1.79 µM; in the experiment with SW480 colon cancer cells, 4.34 µM; in the experiment with Wnt activity, 1.81 µM. In addition, in experiment [2], the Emax was found to be 42%.
